Source: article PMC7057948, “A genome-wide approach for identification and characterisation of metabolite-inducible systems” (Nature Communications, 2020)
Where a name gives a salt, the structure may show the parent alone. One block for each molecule: values may come before it.

How the values were obtained:
HpdR [1] = experiment: cells; parameters: species or system Cupriavidus necator H16; RFP reporter induction by transcription factor biosensor, fluorescence normalised to cell density, relative to primary effector; details: 6 h; relative to primary effector, C. necator, MM; read-out: % activation
Method: (§1) To screen the 441 combinations of inducer and biosensor for cross-reactivity, we employed an automated platform (see Methods section). Strains of C. necator harbouring the inducible systems were grown in MM and transferred to a 96-well microtiter plate format. After the inducers had been extracellularly added, cells were cultured for 6 h before RFP fluorescence and cell density were measured. […] The remaining six inducible systems were activated by one or more metabolites other than their cognate inducers. This cross-reactivity may be the result of either structural resemblance, a metabolic relationship or a combination thereof. For example, L-phenylalanine is converted into L-tyrosine by the phenylalanine 4-monooxygenase PhhA (H16_RS18365). Therefore, activation of the L-tyrosine-inducible system by L-phenylalanine is more likely to be due to biological conversion of the added compound into the primary effector rather than direct interaction of L-phenylalanine with HpdA. However, since the difference between the two molecules lies in a singly hydroxyl-group, an induction by structural resemblance cannot be entirely ruled out. The same applies to phenylglyoxylate that activated the benzoate-inducible system. Phenylglyoxylate is converted by C. necator into benzoate via a two-step reaction with benzaldehyde as intermediate compound. During the first reaction, carbon dioxide is generated that may also explain induction of the formate-inducible system by the structurally dissimilar phenylglyoxylate. Since carbon dioxide can subsequently be converted into formate, it is rational to postulate that the FdsR/PH16_RS03165-inducible system is activated in this case by its primary inducer. In addition to phenylglyoxylate, the benzoate-inducible system was activated by extracellular supplementation with cyclohexanecarboxylate and cumate. Cyclohexanecarboxylate shares both a structural resemblance to benzoate and downstream  Fig. 6 Orthogonality of inducible systems. a Cross-reactivity of a set of 21 inducible systems and their corresponding primary inducers. The heat map illustrates induction of reporter gene expression in the presence of the metabolite (in %) relative to the induction mediated by the corresponding primary effector. Measurements were taken 6 h after supplementation with inducer at a final concentration of 5 mM. Data are mean, n = 4. Source data are provided as a Source Data file. b Fluorescence output of individual cells of C. necator carrying pEH263 measured by flow cytometry. The vector pEH263 contains the 3,4-dihydroxybenzoate- and [compound left out]-inducible systems controlling expression of rfp and egfp, respectively. Fluorescence was determined in the absence of inducer (orange), in the presence of 3,4-dihydroxybenzoate (blue), [compound left out] (green), and both 3,4-dihydroxybenzoate and [compound left out] (purple). Effector concentrations correspond to their respective Km’s and fluorescence was measured 2 h after inducer addition.

OapR = experiment: cells; parameters: species or system Cupriavidus necator H16; RFP reporter induction by transcription factor biosensor, fluorescence normalised to cell density, relative to primary effector; details: 6 h; relative to primary effector, C. necator, MM; read-out: % activation
Method: as §1

FdsR = FdsR (Cupriavidus necator, UniProt Q0KDY4); experiment: cell-based
Text: RFP reporter dose-response in C. necator H16, Hill fit on FdsR

XdhR = test system: T1, XdhR; experiment: RFP reporter dose-response in C. necator H16, Hill fit; type: cell-based, Cupriavidus necator; details: inducer concentration for half-maximal activation; extracellular inducer, minimal medium, 30 °C, 80 min; whole cells with chromosomal regulator copy; read-out: Km^b
T1 construct: native full-length gene, divergent to operon starting at H16_RS05055; reporter plasmid pEH154 (plasmid assigned by list order)

KynR = target: T2, KynR (Cupriavidus necator, UniProt Q0K7Y0); experiment: as above; type: cell-based; details: read-out: Km^b
T2 construct: gene H16_A2813; native full-length gene, divergent to operon starting at H16_RS14030; reporter plasmid pEH136 (plasmid assigned by list order)
T2 sequence (Q0K7Y0 1-160): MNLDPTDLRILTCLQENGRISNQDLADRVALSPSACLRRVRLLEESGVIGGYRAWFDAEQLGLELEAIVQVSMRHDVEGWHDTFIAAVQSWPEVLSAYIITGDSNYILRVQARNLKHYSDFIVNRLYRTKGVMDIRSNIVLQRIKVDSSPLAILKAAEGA
Text: RFP reporter dose-response in C. necator H16, Hill fit on KynR

HpdR [2] = test system: T3, HpdR; experiment: as above; type: cell-based, Cupriavidus necator; details: inducer concentration for half-maximal activation; extracellular inducer, minimal medium, 30 °C, 80 min; whole cells with chromosomal regulator copy; read-out: Km^b
T3 construct: native full-length gene, divergent to operon starting at H16_RS18295; reporter plasmid pEH010 (plasmid assigned by exclusion)
Text: RFP reporter dose-response in C. necator H16, Hill fit on HpdR

HpdA [3] = experiment: cells; parameters: species or system Cupriavidus necator H16; RFP reporter induction by transcription factor biosensor, fluorescence normalised to cell density, relative to primary effector; details: 6 h; relative to primary effector, C. necator, MM; read-out: % activation
Method: as §1

PhhR = target: T4, PhhR (Cupriavidus necator, UniProt Q0K5I4); experiment: RFP reporter dose-response in C. necator H16, Hill fit; type: cell-based; details: read-out: Km^b
T4 construct: native full-length gene, divergent to phhA (H16_RS18365); reporter plasmid pEH137 (plasmid assigned by list order)
T4 sequence (Q0K5I4 1-234): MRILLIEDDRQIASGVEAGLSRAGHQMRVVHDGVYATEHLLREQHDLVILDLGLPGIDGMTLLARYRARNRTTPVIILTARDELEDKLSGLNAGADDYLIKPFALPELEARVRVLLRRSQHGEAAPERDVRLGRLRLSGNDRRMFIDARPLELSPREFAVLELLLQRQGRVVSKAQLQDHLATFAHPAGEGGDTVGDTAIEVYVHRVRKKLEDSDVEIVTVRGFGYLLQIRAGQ

HpdA [4] = test system: T5, HpdA; experiment: as above; type: cell-based, Cupriavidus necator; details: inducer concentration for half-maximal activation; extracellular inducer, minimal medium, 30 °C, 80 min; whole cells with chromosomal regulator copy; read-out: Km^b
T5 construct: native full-length regulator gene, divergent to operon starting at H16_RS24175; reporter plasmid pEH158 (plasmid assigned by list order)
Text: RFP reporter dose-response in C. necator H16, Hill fit on HpdA

BenM [5] = experiment: cells; parameters: species or system Cupriavidus necator H16; RFP reporter induction by transcription factor biosensor, fluorescence normalised to cell density, relative to primary effector; details: 6 h; relative to primary effector, C. necator, MM; read-out: % activation
Method: as §1

BenM [6] = target: T6, BenM (Cupriavidus necator, UniProt Q0KAA5); experiment: cell-based; parameters: RFP reporter induction by transcription factor biosensor, single time-point fluorescence in LB, relative to primary effector; details: Escherichia coli TOP10; relative to primary effector, E. coli, LB; read-out: % activation
T6 construct: native full-length gene, divergent to operon starting at H16_RS09790; reporter plasmid pEH148 (plasmid assigned by list order)
T6 sequence (Q0KAA5 1-305): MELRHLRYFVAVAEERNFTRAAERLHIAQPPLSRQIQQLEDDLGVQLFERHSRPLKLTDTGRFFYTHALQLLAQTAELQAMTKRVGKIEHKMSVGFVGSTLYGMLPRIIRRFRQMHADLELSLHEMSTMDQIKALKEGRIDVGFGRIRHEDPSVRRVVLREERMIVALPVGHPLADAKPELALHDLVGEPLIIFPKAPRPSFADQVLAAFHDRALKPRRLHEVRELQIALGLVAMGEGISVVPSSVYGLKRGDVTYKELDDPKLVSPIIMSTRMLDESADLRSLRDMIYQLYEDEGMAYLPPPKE
Text: (§2) TRs often recognise molecules that are structurally similar to their primary effectors. For example, isopropyl β-D-1-thiogalactopyranoside is a commonly used structural analogue of allolactose, employed to control the expression of genes regulated by LacI. Here, the TR’s specificity was investigated to identify previously uncharacterised ligand–TR interactions and consequently extend the biosensor application to the detection of structurally similar or metabolically related compounds. To do so, the library of 21 native and heterologous inducible systems was screened against 46 compounds using an integrated robotic platform, as described in the previous section. […] Similarly to the former orthogonality screen (Fig. 6a), it should be noted that activation of reporter gene expression by the extracellularly added compounds likely indicates a structural resemblance to the primary ligand, a metabolic relationship or a combination thereof. To shed light on their cause of system activation, cultures of E. coli carrying the functional formate-, [compound left out]-, benzoate-, 3,4-dihydroxybenzoate-, acetoin- and β-alanine-inducible systems, active in this host organism, were evaluated for the same cross-reactivity (Supplementary Table 5).  Fig. 3 C. necator native systems mediate controllable gene expression in E. coli and P. putida. Single time-point fluorescence measurements of a, b E. coli and c, d P. putida carrying the C. necator-inducible gene expression systems composed of TR and promoter a, c or ‘promoter only’ version b, d. The plasmids harbouring the individual system– or promoter–reporter gene constructs are indicated. RFP fluorescence output was determined in the absence of inducer (light purple and light blue) and 6 h after extracellular supplementation with the corresponding primary effector to a final concentration of 5 mM (dark purple and dark blue). Data are mean ± SD, n = 3, *p < 0.05, **p < 0.01, ***p ≤ 0.001, ****p ≤ 0.0001, unpaired two-tailed t-test. Source data are provided as a Source Data file. All strains used in this study are listed in Supplementary Table 7. E. coli TOP10 (Life Technologies) was used for cloning and plasmid propagation. For single time-point fluorescence measurements and flow cytometric analyses, bacterial strains were propagated in Luria-Bertani (LB) medium. To determine the dose–responses and to evaluate inducer TR cross-reactivity, C. necator was cultivated in MM containing 1 g/L NH4Cl, 9 g/L Na2HPO4·12H2O, 1.5 g/L KH2PO4, 0.2 g/L MgSO4·7H2O, 0.02 g/L CaCl2·2H2O and 0.0012 g/L (NH4)5[Fe(C6H4O7)2] with 1 mL/L trace element solution SL7 (1.3 mL/L 25% (w/v) HCl, 0.07 g/L ZnCl2, 0.1 g/L MnCl2·4H2O, 0.062 g/L H3BO3, 0.190 g/L CoCl2·6H2O, 0.017 g/L CuCl2·2H2O, 0.024 g/L NiCl2·6H2O and 0.036 g/L Na2MoO4·2H2O) supplemented with 0.4% (w/v) sodium gluconate. If required, antibiotics were added to the growth medium at the following concentrations: 12.5 µg/mL tetracycline or 25 µg/mL chloramphenicol for E. coli, 50 µg/mL chloramphenicol for C. necator and 25 µg/mL tetracycline for P. putida. For solid media preparation, 15 g/L agar was added.

PcaQ = target: T7, PcaQ (Cupriavidus necator, UniProt Q0JYV0); experiment: RFP reporter dose-response in C. necator H16, Hill fit; type: cell-based; details: read-out: Km^b
T7 construct: native full-length gene, divergent to operon starting at H16_RS30145; reporter plasmid pEH161 (plasmid assigned by list order)
T7 sequence (Q0JYV0 1-317): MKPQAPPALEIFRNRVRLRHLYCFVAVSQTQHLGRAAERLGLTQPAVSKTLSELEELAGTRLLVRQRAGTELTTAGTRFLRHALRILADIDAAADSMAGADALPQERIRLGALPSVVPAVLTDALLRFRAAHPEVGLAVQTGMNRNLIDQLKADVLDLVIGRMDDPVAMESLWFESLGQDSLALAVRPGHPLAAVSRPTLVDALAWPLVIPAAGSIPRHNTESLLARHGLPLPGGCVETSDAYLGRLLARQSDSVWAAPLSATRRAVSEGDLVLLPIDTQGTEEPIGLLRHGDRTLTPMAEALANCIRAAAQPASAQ

AcoR [7] = experiment: cells; parameters: species or system Cupriavidus necator H16; RFP reporter induction by transcription factor biosensor, fluorescence normalised to cell density, relative to primary effector; details: 6 h; relative to primary effector, C. necator, MM; read-out: % activation
Method: as §1

AcoR [8] = target: T8, AcoR (Cupriavidus necator, UniProt P28614); experiment: cell-based; parameters: RFP reporter induction by transcription factor biosensor, single time-point fluorescence in LB, relative to primary effector; details: Escherichia coli TOP10; relative to primary effector, E. coli, LB; read-out: % activation
T8 construct: native full-length gene, divergent to operon starting at H16_RS19445; reporter plasmid pEH052 (plasmid assigned by list order)
T8 sequence (P28614 1-668): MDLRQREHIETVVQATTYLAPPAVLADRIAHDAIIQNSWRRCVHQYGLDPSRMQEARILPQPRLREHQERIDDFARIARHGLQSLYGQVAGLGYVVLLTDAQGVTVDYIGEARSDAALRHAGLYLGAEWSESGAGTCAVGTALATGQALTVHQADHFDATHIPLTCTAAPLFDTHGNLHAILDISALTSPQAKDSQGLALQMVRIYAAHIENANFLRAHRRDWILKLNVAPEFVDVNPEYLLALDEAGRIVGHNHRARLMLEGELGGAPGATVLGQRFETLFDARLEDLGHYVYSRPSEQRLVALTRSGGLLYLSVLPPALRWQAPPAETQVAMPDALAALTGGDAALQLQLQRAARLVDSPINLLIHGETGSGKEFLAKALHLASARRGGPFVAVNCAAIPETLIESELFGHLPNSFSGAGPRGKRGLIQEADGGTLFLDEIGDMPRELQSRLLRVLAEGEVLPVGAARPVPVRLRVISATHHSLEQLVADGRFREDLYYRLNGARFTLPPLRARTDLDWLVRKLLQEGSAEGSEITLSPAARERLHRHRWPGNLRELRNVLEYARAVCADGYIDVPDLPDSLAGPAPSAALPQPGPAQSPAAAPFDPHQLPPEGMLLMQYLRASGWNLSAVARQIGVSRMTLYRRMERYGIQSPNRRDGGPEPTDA
Text: as §2

Chain of FdsR (Q0KDY4 1-364): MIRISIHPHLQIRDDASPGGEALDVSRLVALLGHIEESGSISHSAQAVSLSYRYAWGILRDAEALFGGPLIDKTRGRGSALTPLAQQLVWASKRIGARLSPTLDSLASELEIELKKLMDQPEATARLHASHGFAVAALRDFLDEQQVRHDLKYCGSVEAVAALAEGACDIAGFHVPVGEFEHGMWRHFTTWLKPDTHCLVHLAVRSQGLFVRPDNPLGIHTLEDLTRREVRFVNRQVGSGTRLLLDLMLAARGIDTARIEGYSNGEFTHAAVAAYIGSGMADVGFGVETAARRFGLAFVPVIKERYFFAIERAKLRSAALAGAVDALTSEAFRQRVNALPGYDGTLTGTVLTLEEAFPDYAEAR

EC50 (KynR): 2.64 ± 0.18 µM
SMILES: Nc1ccccc1C(=O)C[C@H](N)C(=O)O [compound 9, L-kynurenine]

EC50 (HpdR [2]): 13.2 ± 1.9 µM
SMILES: O=C(O)CCO [compound 10, 3-Hydroxypropanoate]

EC50 (PhhR): 16.9 ± 2.2 µM
SMILES: N[C@@H](Cc1ccccc1)C(=O)O [compound 11, L-phenylalanine]
activity at 5000 µM (HpdA [3]): 77%

EC50 (PcaQ): 8.63 ± 0.4 µM
SMILES: O=C(O)c1ccc(O)c(O)c1 [compound 16, 3,4-Dihydroxybenzoate]

activity at 5000 µM (AcoR [8]): 0%
activity at 5000 µM (BenM [6]): 2%
SMILES: CC(C)c1ccc(C(=O)O)cc1 [cumate]
activity at 5000 µM (AcoR [7]): 18%
activity at 5000 µM (BenM [5]): 100%

The next lines start with the molecule.

SMILES: C=CC(=O)O [Acrylate]
activity at 5000 µM (HpdR [1]): 113%
activity at 5000 µM (OapR): 68%

SMILES: O=CO [compound 2, Formate]
EC50 (FdsR): 130 ± 7 µM

SMILES: O=c1[nH]c(=O)c2[nH]cnc2[nH]1 [compound 3, Xanthine]
EC50 (XdhR): 13 ± 1.4 µM

SMILES: N[C@@H](Cc1ccc(O)cc1)C(=O)O [compound 13, L-tyrosine]
EC50 (HpdA [4]): 9.9 ± 2.2 µM

SMILES: O=C(O)C1CCCCC1 [compound 14, Cyclohexanecarboxylate]
activity at 5000 µM (BenM [5]): 110%
activity at 5000 µM (BenM [6]): 4.3%
